Results taken from ChEMBL document CHEMBL1275440, “In vitro activity of telavancin against resistant gram-positive bacteria” (2008).
In brackets after ≈: the same amount, converted by molar mass. Activity calls are given as the source filed them. The calls are words filed in the database; no cut-off is given here.

Experiments:
Enterococcus faecalis [1] = assay: Antibacterial activity against vancomycin resistant Enterococcus faecalis VanB clinical isolate by broth microdilution method; type: functional
Enterococcus faecalis [2] = assay: Antibacterial activity against vancomycin resistant Enterococcus faecalis VanB clinical isolate assessed as susceptibility level by broth microdilution method; type: functional
Enterococcus faecium [3] = assay: Antibacterial activity against vancomycin resistant Enterococcus faecium VanB clinical isolate by broth microdilution method; type: functional
Enterococcus faecium [4] = assay: Antibacterial activity against vancomycin resistant Enterococcus faecium VanA clinical isolate assessed as susceptibility level by broth microdilution method; type: functional
Enterococcus faecalis [5] = test system: Enterococcus faecalis
Enterococcus faecalis [6] = assay: Antibacterial activity against vancomycin resistant Enterococcus faecalis VanA clinical isolate by broth microdilution method; type: functional
Enterococcus faecium [7] = assay: Antibacterial activity against vancomycin resistant Enterococcus faecium VanA clinical isolate by broth microdilution method; type: functional
Enterococcus faecium [8] = assay: Antibacterial activity against vancomycin resistant Enterococcus faecium VanB clinical isolate assessed as susceptibility level by broth microdilution method; type: functional
Enterococcus faecalis [9] = assay: Antibacterial activity against vancomycin resistant Enterococcus faecalis VanA clinical isolate assessed as susceptibility level by broth microdilution method; type: functional
[10] = test system: Staphylococcus haemolyticus; assay: Antibacterial activity against methicillin resistant coagulase-negative Staphylococcus haemolyticus clinical isolate by broth microdilution method; type: functional
Staphylococcus capitis [11] = assay: Antibacterial activity against methicillin resistant coagulase-negative Staphylococcus capitis clinical isolate by broth microdilution method; type: functional
[12] = Antibacterial activity against methicillin resistant coagulase-negative Staphylococcus hominis subsp. novobiosepticus clinical isolate assessed as susceptibility level by broth microdilution method; type: functional
Staphylococcus aureus [13] = assay: Antibacterial activity against methicillin resistant Staphylococcus aureus clinical isolate assessed as susceptibility level by broth microdilution method; type: functional
[14] = test system: Staphylococcus epidermidis; assay: Antibacterial activity against methicillin resistant Staphylococcus epidermidis clinical isolate assessed as susceptibility level by broth microdilution method; type: functional
[15] = test system: Staphylococcus auricularis; assay: Antibacterial activity against methicillin resistant coagulase-negative Staphylococcus auricularis clinical isolate by broth microdilution method; type: functional
[16] = test system: Staphylococcus saprophyticus; assay: Antibacterial activity against methicillin resistant coagulase-negative Staphylococcus saprophyticus clinical isolate by broth microdilution method; type: functional
[17] = test system: Staphylococcus saprophyticus; assay: Antibacterial activity against methicillin resistant coagulase-negative Staphylococcus saprophyticus clinical isolate assessed as susceptibility level by broth microdilution method; type: functional
[18] = test system: Staphylococcus auricularis; assay: Antibacterial activity against methicillin resistant coagulase-negative Staphylococcus auricularis clinical isolate assessed as susceptibility level by broth microdilution method; type: functional
[19] = Antibacterial activity against methicillin resistant coagulase-negative Staphylococcus hominis subsp. novobiosepticus clinical isolate by broth microdilution method; type: functional
Staphylococcus aureus [20] = assay: Antibacterial activity against methicillin resistant Staphylococcus aureus clinical isolate by broth microdilution method; type: functional
[21] = test system: Staphylococcus epidermidis; assay: Antibacterial activity against methicillin resistant Staphylococcus epidermidis clinical isolate by broth microdilution method; type: functional
Staphylococcus capitis [22] = assay: Antibacterial activity against methicillin resistant coagulase-negative Staphylococcus capitis clinical isolate assessed as susceptibility level by broth microdilution method; type: functional
[23] = test system: Staphylococcus haemolyticus; assay: Antibacterial activity against methicillin resistant coagulase-negative Staphylococcus haemolyticus clinical isolate assessed as susceptibility level by broth microdilution method; type: functional

## CC1(C)S[C@@H]2[C@H](NC(=O)[C@H](N)c3ccccc3)C(=O)N2[C@H]1C(=O)O [AMPICILLIN]
Enterococcus faecalis [1]
  MIC: ≤ 0.25 µg/mL
Enterococcus faecalis [2]
  Activity: 60%
Enterococcus faecium [3]
  MIC50: 64 µg/mL (≈ 183 µM)
  MIC90: 64 µg/mL (≈ 183 µM)
Enterococcus faecium [4]
  Activity: 0%
Enterococcus faecalis [5]
  MIC50: inactive
  MIC90: inactive
Enterococcus faecalis [6]
  MIC50: 1 µg/mL (≈ 2.86 µM)
  MIC90: 64 µg/mL (≈ 183 µM)
Enterococcus faecium [7]
  MIC50: 64 µg/mL (≈ 183 µM)
  MIC90: 128 µg/mL (≈ 366 µM)
Enterococcus faecium [8]
  Activity: 22%
Enterococcus faecalis [9]
  Percent of isolates susceptible: 81%

## CC(=O)N[C@@H]1[C@H](Oc2c3cc4cc2Oc2ccc(cc2Cl)[C@@H](O[C@@H]2O[C@@H](CO)[C@@H](O)[C@H](O)[C@@H]2NC(C)=O)[C@@H]2NC(=O)[C@H](NC(=O)[C@@H]4NC(=O)[C@H]4NC(=O)[C@@H](Cc5ccc(c(Cl)c5)O3)NC(=O)[C@H](N)c3ccc(O)c(c3)Oc3cc(O)cc4c3)c3ccc(O)c(c3)-c3c(O[C@H]4O[C@H](CO)[C@@H](O)[C@@H](O)[C@@H]4O)cc(O)cc3[C@@H](C(=O)O)NC2=O)O[C@@H](CO)[C@@H](O)[C@@H]1O
[10]
  MIC50: 4 µg/mL (≈ 2.26 µM)
  MIC90: 32 µg/mL (≈ 18.1 µM)
Staphylococcus capitis [11]
  MIC50: 4 µg/mL (≈ 2.26 µM)
  MIC90: 32 µg/mL (≈ 18.1 µM)
[12]
  Activity: 88%
Staphylococcus aureus [13]
  Activity: 32%
Enterococcus faecalis [1]
  MIC: 0.5 µg/mL (≈ 0.283 µM)
Enterococcus faecalis [2]
  Activity: 100%
[14]
  Activity: 81%
[15]
  MIC50: 4 µg/mL (≈ 2.26 µM)
  MIC90: 32 µg/mL (≈ 18.1 µM)
Enterococcus faecium [3]
  MIC50: 0.5 µg/mL (≈ 0.283 µM)
  MIC90: 1 µg/mL (≈ 0.566 µM)
Enterococcus faecium [4]
  Activity: 0%
Enterococcus faecalis [5]
  MIC50: inactive
  MIC90: inactive
[16]
  MIC50: 4 µg/mL (≈ 2.26 µM)
  MIC90: 32 µg/mL (≈ 18.1 µM)
[17]
  Activity: 88%
[18]
  Activity: 88%
[19]
  MIC50: 4 µg/mL (≈ 2.26 µM)
  MIC90: 32 µg/mL (≈ 18.1 µM)
Staphylococcus aureus [20]
  Activity: 32%
Staphylococcus aureus [20]; Staphylococcus aureus
  MIC50: 0.5 µg/mL (≈ 0.283 µM)
  MIC90: 1 µg/mL (≈ 0.566 µM)
[21]
  MIC50: 8 µg/mL (≈ 4.53 µM)
  MIC90: 16 µg/mL (≈ 9.05 µM)
Enterococcus faecalis [6]
  MIC50: 64 µg/mL (≈ 36.2 µM)
  MIC90: > 128 µg/mL
Enterococcus faecium [7]
  MIC50: 64 µg/mL (≈ 36.2 µM)
  MIC90: > 128 µg/mL
Enterococcus faecium [8]
  Activity: 100%
Enterococcus faecalis [9]
  Percent of isolates susceptible: 0%
Staphylococcus capitis [22]
  Activity: 88%
[23]
  Activity: 88%
